Columns and labels:
Format in all cases: cell-based
[1] = target: T1, KRAS G12C protein in NCI-H358 cells (Homo sapiens, UniProt P01116, G12C); assay: KRAS degradation assay (Western Blot) in NCI-H358 cells; conditions: 24 h
T1 construct: endogenous in cells; host or cells: NCI-H358
Excerpt: (§1) Test Example 5: KRAS G12C, KRAS G12D, KRAS G12V, KRAS G13D, and KRAS WT (Expanded) Degradation Assays
(§2) The degradation effect of the compounds on KRAS was investigated on KRAS G12C mutant human non-small cell lung cancer cell NCI-H358, KRAS G12D mutant human metastatic pancreatic cancer cell AsPc-1, KRAS G12D mutant human lung cancer cell A427, KRAS G12V mutant human colorectal cancer cell SW620, KRAS G12V mutant human lung cancer cell SW900, KRAS G13D mutant human colorectal cancer epithelial cell DLD-1, and KRAS WT human gastric cancer cell MKN-1. The specific procedures were as follows: 0.95 mL of cells were seeded into each well of a 24-well cell culture plate to achieve a cell density of 5×10^5 cells/well; and the cell plate was incubated in an incubator at 37° C. with 5% CO2 overnight. Then 50 μL of the compound solution after dilution was added to each of the wells with the corresponding cells, so that the final concentration of the compound was in a range of 0.03-3000 nM. The final concentration of DMSO was 0.25%. After the compounds were added, the cell plate was incubated in an incubator at 37° C. with 5% CO2 for 24 h. The culture medium in the 24-well cell culture plate was then removed, and the plate was washed twice with 1×PBS (KeyGEN). 120 μL of RIPA (strong) lysis buffer (Beyotime) (supplemented with 1 mM phenylmethylsulfonyl fluoride, a protease inhibitor mixture (Beyotime), and a protease phosphatase inhibitor mixture (Beyotime)) was added to lyse adherent SW900 cells at the bottom of the cell culture plate. After the plate was left to stand on ice for 30 min, the protein lysate in each well was transferred to a 1.5 mL centrifuge tube and centrifuged at 15000 g for 20 min at 4° C. The cell lysate supernatants after centrifugation were cryopreserved in a refrigerator at −80° C. for later use.
(§3) After the samples of the cell lysate supernatants that had been prepared were thawed from the refrigerator at −80° C., the total protein concentrations of the cell lysates were determined using a BCA protein quantification kit (Tiangen). The total protein concentrations of the samples were then adjusted to 0.5 μg/μL with PBS and 5×SDS-PAGE protein loading buffer (Beyotime), and the samples were incubated in a water bath at 100° C. for 15 min. The samples were then incubated in an ice bath for 5 min and centrifuged at 14000 g for 1 min at 4° C., and the supernatants were mixed well as loading samples for the Western Blot assay. The samples were loaded into wells of a 10% precast gel (KeyGEN) with a loading volume of 10 μL (total protein: 5 μg), a sufficient Tris-MOPS-SDS running buffer (Adamas) was added, and then electrophoresis was performed at a constant voltage of 120 V for 55 min. After the electrophoresis, the proteins on the gel were transferred to PVDF membranes at a constant current of 250 mA for 55 min. After the membrane transfer, the PVDF membranes were incubated in 1× Quick Block blocking buffer (Beyotime)at room temperature for 30 min. After the blocking, the PVDF membranes were separately incubated at 4° C. overnight with the KRAS antibody (Abcam) diluted in a ratio of 1:1000 and the β-actin antibody (Abcam) diluted in a ratio of 1:2000 in 5% BSA as the diluent, and then washed with 1×TBST buffer (2.4 g of Tris, 8.8 g of NaCl, 1.5 mL of Tween 20, with pH adjusted to 7.4, with the volume brought to 1 L) 3 times for 10 min/time. The membranes were incubated with a secondary antibody (Abcam) diluted in 5% BSA at room temperature for 2 h, and then washed with 1×TBST buffer 3 times for 10 min/time. Finally, the membranes were incubated with Clarity Western ECL Substrate (BIO-RAD) for 5 min for luminescence and color development, and a ChemiScope 6200 Touch chemiluminescence imaging system (Clinx) was used for color development and protein mapping. Gray value analysis of the protein maps was performed using the chemiluminescence analysis software (Clinx). […]

[2] = target: T2, KRAS G13D protein in DLD-1 cells (Homo sapiens, UniProt P01116, G13D); assay: KRAS degradation assay (Western Blot) in DLD-1 cells; conditions: 24 h
T2 construct: endogenous in cells; host or cells: DLD-1
T2 sequence (P01116 1-188 isoform P01116-2 G13D): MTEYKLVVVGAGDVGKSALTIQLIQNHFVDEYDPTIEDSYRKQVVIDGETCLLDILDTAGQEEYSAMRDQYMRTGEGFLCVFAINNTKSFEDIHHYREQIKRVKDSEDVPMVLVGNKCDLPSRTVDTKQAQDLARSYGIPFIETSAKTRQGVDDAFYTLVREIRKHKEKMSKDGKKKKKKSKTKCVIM
How it was run: (§4)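 5×10^5 cells/well; cpd 0.03–3000 nM final, 0.25% DMSO, 24 h, 37 °C/5% CO2. RIPA lysis, 5 µg protein/lane, anti-KRAS WB, β-actin loading ref. DC50/Dmax by nonlinear fit.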

[3] = target: T3, KRAS G12D protein in AsPc-1 cells (Homo sapiens, UniProt P01116, G12D); assay: KRAS degradation assay (Western Blot) in AsPc-1 cells; conditions: for DC50: 24 h; for Dmax: ASPC1, 24 h
T3 construct: endogenous in cells; host or cells: AsPc-1
T3 sequence (P01116 1-188 isoform P01116-2 G12D): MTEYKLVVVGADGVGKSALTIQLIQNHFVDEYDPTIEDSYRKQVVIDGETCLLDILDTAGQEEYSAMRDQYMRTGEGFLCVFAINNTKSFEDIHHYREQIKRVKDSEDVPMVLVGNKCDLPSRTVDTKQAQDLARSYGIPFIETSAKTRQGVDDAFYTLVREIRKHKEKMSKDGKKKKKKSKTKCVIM
How it was run: as §4

[4] = target: T4, KRAS G12D protein in A427 cells (Homo sapiens, UniProt P01116, G12D); assay: KRAS degradation assay (Western Blot) in A427 cells; conditions: for DC50: 24 h; for Dmax: A-427, 24 h
T4 construct: endogenous in cells; host or cells: A427
T4 sequence (P01116 1-188 isoform P01116-2 G12D): as above
Excerpt: as §1, §2, §3

[5] = target: T5, KRAS WT (expanded) protein in MKN1 cells (Homo sapiens, UniProt P01116); assay: KRAS degradation assay (Western Blot) in MKN1 cells; conditions: for DC50: 24 h; for Dmax: MKN-1, 24 h
T5 construct: endogenous in cells; host or cells: MKN1 (MKN-1)
T5 sequence (P01116 1-188 isoform P01116-2): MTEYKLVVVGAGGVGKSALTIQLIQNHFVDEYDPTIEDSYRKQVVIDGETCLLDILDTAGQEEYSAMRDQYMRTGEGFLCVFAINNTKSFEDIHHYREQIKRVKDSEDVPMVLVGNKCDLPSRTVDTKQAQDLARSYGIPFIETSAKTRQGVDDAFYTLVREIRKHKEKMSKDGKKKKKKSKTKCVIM
Excerpt: as §1, §2, §3

[6] = target: T6, KRAS G12V protein in SW620 cells (Homo sapiens, UniProt P01116, G12V); assay: KRAS degradation assay (Western Blot) in SW620 cells; conditions: for DC50: 24 h; for Dmax: SW-620, 24 h
T6 construct: endogenous in cells; host or cells: SW620
T6 sequence (P01116 1-188 isoform P01116-2 G12V): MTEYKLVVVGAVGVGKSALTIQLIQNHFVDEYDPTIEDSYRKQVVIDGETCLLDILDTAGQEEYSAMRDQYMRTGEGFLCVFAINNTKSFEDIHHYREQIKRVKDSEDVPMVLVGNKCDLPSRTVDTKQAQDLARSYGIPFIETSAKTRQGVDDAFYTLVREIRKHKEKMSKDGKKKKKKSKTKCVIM
How it was run: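 Degradation of KRAS measured by Western blot after 24 h exposure to compound (0.03–3000 nM final). Values are DC50 and Dmax.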

T1 sequence (P01116 1-188 isoform P01116-2 G12C): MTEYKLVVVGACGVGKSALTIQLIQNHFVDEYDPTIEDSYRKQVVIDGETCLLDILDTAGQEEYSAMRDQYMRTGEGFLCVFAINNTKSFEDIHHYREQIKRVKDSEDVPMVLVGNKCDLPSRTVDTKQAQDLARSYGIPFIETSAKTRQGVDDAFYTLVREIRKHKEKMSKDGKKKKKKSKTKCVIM

DC50 [1]	Dmax [1]	DC50 [2]	Dmax [2]	DC50 [3]	Dmax [3]	DC50 [4]	Dmax [4]	DC50 [5]	Dmax [5]	DC50 [6]	Dmax [6]	Structure (SMILES)
≤ 50 nM	80 to 100%	≤ 50 nM	80 to 100%	≤ 50 nM	80 to 100%	≤ 50 nM	80 to 100%	≤ 50 nM	80 to 100%			CCc1cccc2cc(O)cc(-c3ncc4c(N5CCC[C@@](C)(O)C5)nc(OCC5(CN6CCN(CC7CCC8(CC7)CCN(C(=O)c7ccc(Cl)c(N9CCC(=O)NC9=O)c7)CC8)CC6)CC5)nc4c3F)c12 [Example 3, (R)-1-(2-chloro-5-(9-((4-((1-(((7-(8-ethyl-3-hydroxynaphthalen-1-yl)-8-fluoro-4-(3-hydroxy-3-methylpiperidin-1-yl)pyrido[4,3-d]pyrimidin-2-yl)oxy)methyl)cyclopropyl)methyl)piperazin-1-yl)methyl)-3-azaspiro[5.5]undecane-3-carbonyl)phenyl)dihydropyrimidine-2,4(1H,3H)-dione]
≤ 50 nM	80 to 100%	≤ 50 nM	80 to 100%	≤ 50 nM	80 to 100%	≤ 50 nM	80 to 100%	≤ 50 nM	80 to 100%	0.62 nM	100%	C#Cc1c(F)ccc2cc(O)cc(-c3ncc4c(N5CCC[C@@](C)(O)C5)nc(OCC5(CN6CCN(CC7CCC8(CC7)CCN(C(=O)c7ccc(OC)c(N9CCC(=O)NC9=O)c7)CC8)CC6)CC5)nc4c3F)c12 [Example 7, (R)-1-(5-(9-((4-((1-(((7-(8-ethynyl-7-fluoro-3-hydroxynaphthalen-1-yl)-8-fluoro-4-(3-hydroxy-3-methylpiperidin-1-yl)pyrido[4,3-d]pyrimidin-2-yl)oxy)methyl)cyclopropyl)methyl)piperazin-1-yl)methyl)-3-azaspiro[5.5]undecane-3-carbonyl)-2-methoxyphenyl)dihydropyrimidine-2,4(1H,3H)-dione]
≤ 50 nM	80 to 100%	≤ 50 nM	80 to 100%	≤ 50 nM	80 to 100%	≤ 50 nM	80 to 100%	≤ 50 nM	80 to 100%	2.67 nM	100%	C#Cc1c(F)ccc2cc(O)cc(-c3ncc4c(N5CCC[C@@](C)(O)C5)nc(OCC5(CN6CCN(CC7CCC8(CC7)CCN(C(=O)c7ccc(Cl)c(N9CCC(=O)NC9=O)c7)CC8)CC6)CC5)nc4c3F)c12 [Example 1, (R)-1-(2-chloro-5-(9-((4-((1-(((7-(8-ethynyl-7-fluoro-3-hydroxynaphthalen-1-yl)-8-fluoro-4-(3-hydroxy-3-methylpiperidin-1-yl)pyrido[4,3-d]pyrimidin-2-yl)oxy)methyl)cyclopropyl)methyl)piperazin-1-yl)methyl)-3-azaspiro[5.5]undecane-3-carbonyl)phenyl)dihydropyrimidine-2,4(1H,3H)-dione]
≤ 50 nM	80 to 100%	≤ 50 nM	80 to 100%	≤ 50 nM	80 to 100%	≤ 50 nM	80 to 100%	≤ 50 nM	80 to 100%	3.56 nM	99.1%	C#Cc1c(F)ccc2cc(O)cc(-c3ncc4c(N5CCC[C@@](C)(O)C5)nc(OCC5(CN6CCN(CC7CCC8(CC7)CCN(C(=O)c7ccc(C)c(N9CCC(=O)NC9=O)c7)CC8)CC6)CC5)nc4c3F)c12 [Example 6, (R)-1-(5-(9-((4-((1-(((7-(8-ethynyl-7-fluoro-3-hydroxynaphthalen-1-yl)-8-fluoro-4-(3-hydroxy-3-methylpiperidin-1-yl)pyrido[4,3-d]pyrimidin-2-yl)oxy)methyl)cyclopropyl)methyl)piperazin-1-yl)methyl)-3-azaspiro[5.5]undecane-3-carbonyl)-2-methylphenyl)dihydropyrimidine-2,4(1H,3H)-dione]
